Reference: ChEMBL document CHEMBL5329166, “Discovery of imeglimin-inspired novel 1,3,5-triazine derivatives as antidiabetic agents in streptozotocin-induced diabetes in Wistar rats via inhibition of DPP-4” (RSC Med Chem, 2023)
Calls of active or inactive are those of the source. No cut-off for these calls is given here.

Experiments:
[1] = target: Dipeptidyl peptidase 8 (Homo sapiens, UniProt Q6V1X1); test: Inhibition of N-terminal GST/His-tagged human recombinant DPP-8 (1 to 898 residues) expressed in Sf9 insect cells using Ala-Pro-AMC dipeptide as substrate by fluorescence based assay
Sequence of Dipeptidyl peptidase 8 (Q6V1X1 whole entry, the tested form may be a part): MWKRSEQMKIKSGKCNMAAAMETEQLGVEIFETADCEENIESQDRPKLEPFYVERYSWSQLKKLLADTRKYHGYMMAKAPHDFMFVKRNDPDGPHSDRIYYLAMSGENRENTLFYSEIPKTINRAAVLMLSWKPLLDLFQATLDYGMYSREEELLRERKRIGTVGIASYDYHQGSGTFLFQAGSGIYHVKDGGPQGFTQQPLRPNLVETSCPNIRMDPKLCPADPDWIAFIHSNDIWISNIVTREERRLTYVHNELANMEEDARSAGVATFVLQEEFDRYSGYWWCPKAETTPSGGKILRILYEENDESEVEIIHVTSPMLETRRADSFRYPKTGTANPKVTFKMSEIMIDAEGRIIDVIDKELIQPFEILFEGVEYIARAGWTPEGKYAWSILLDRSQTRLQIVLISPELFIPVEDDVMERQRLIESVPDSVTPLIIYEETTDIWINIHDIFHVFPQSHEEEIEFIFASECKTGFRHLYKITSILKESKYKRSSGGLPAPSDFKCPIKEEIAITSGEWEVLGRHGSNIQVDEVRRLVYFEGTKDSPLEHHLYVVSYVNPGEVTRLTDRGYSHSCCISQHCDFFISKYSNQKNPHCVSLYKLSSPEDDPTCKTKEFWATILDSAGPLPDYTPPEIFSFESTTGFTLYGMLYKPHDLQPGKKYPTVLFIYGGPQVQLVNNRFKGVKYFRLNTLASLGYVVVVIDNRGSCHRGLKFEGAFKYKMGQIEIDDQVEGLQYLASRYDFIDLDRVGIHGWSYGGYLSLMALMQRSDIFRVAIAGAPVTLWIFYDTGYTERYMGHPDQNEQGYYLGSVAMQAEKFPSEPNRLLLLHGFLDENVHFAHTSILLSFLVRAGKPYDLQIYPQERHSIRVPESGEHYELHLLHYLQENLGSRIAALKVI

[2] = target: Dipeptidyl peptidase 9 (Homo sapiens, UniProt Q86TI2); test: Inhibition of N-terminal GST-tagged human recombinant DPP-9 short form (1 to 863 residues) expressed in Sf9 cells using Ala-Pro-AMC dipeptide as substrate by fluorescence based assay
Sequence of Dipeptidyl peptidase 9 (Q86TI2 whole entry, the tested form may be a part): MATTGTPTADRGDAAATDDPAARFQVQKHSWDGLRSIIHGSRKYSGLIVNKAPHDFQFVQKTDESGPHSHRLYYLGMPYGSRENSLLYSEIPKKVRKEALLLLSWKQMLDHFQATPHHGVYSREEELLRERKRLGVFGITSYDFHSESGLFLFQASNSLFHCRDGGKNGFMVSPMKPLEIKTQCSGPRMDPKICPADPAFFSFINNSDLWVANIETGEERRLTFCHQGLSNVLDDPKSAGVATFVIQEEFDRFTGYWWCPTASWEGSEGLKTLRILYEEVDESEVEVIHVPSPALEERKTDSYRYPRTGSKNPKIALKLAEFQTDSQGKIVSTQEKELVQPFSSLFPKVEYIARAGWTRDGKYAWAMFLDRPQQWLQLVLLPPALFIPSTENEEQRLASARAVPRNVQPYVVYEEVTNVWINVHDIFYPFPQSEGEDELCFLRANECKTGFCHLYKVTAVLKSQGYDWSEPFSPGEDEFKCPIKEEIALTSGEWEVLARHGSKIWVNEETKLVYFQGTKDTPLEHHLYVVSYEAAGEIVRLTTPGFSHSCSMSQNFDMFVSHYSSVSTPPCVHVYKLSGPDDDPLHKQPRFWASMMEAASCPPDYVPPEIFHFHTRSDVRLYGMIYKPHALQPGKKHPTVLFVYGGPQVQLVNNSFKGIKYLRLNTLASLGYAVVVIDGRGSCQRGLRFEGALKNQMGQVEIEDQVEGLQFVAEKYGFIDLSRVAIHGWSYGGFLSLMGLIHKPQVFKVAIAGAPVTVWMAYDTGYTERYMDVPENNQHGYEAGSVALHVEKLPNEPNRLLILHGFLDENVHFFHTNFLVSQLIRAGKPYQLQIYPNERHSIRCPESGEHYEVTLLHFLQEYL

[3] = Antioxidant activity assessed as DPPH scavenging activity incubated for 30 mins by absorbance based assay; type: functional; conditions: dose 25-100 µg/ml
[4] = Antioxidant activity assessed as DPPH scavenging activity at 91.26 ug/ml incubated for 30 mins by absorbance based assay; type: functional; conditions: dose 91.26 µg/ml
[5] = Antioxidant activity assessed as H2O2 scavenging activity incubated for 10 mins by absorbance based assay; type: functional; conditions: dose 25-100 µg/ml
[6] = Antioxidant activity assessed as H2O2 scavenging activity at 73.43 ug/ml incubated for 10 mins by absorbance based assay; type: functional; conditions: dose 73.43 µg/ml
[7] = Acute toxicity in rat assessed as animal survival at 2000 mg/kg, po measured after 30 mins to 4 hrs; type: organism-based; conditions: in vivo, time 0.5-4 hrs
[8] = Acute toxicity in rat assessed as change in eyes and mucous membranes at 2000 mg/kg, po measured after 30 mins to 4 hrs; type: organism-based; conditions: in vivo, time 0.5-4 hrs
[9] = Acute toxicity in rat assessed as change in sleep patterns at 2000 mg/kg, po measured after 30 mins to 4 hrs; type: organism-based; conditions: in vivo, time 0.5-4 hrs
[10] = Acute toxicity in rat assessed as change in animal fur at 300 to 1000 mg/kg, po measured after 6 hrs; type: organism-based; conditions: in vivo, dose 300-1000 mg/kg
[11] = Acute toxicity in rat assessed as sleep and sluggish effect at 300 to 1000 mg/kg, po measured after 6 hrs; type: organism-based; conditions: in vivo, dose 300-1000 mg/kg
[12] = Acute toxicity in rat assessed as behavioural alterations at 300 to 1000 mg/kg, po measured after 6 hrs; type: organism-based; conditions: in vivo, dose 300-1000 mg/kg
[13] = system: Rattus norvegicus; test: Antidiabetic activity in IG dosed high fat diet/STZ induced diabetic Wistar rat model assessed as reduction in blood sugar level pretreated with STZ for 21 days followed by compound treatment once daily for 21 days by glucose test strips based assay; type: functional, organism-based; conditions: dose 3-30 mg/kg, time 21.0 day
[14] = system: Rattus norvegicus; test: Antidiabetic activity in high fat diet/STZ induced diabetic Wistar rat model assessed as increase in body weight at 3 to 30 mg/kg, IG pretreated with STZ for 21 days followed by compound treatment once daily for 21 days; type: functional, organism-based; conditions: dose 3-30 mg/kg, time 21.0 day
[15] = system: Rattus norvegicus; test: Antidiabetic activity in high fat diet/STZ induced diabetic Wistar rat model assessed as reduction in triglyceride level at 3 to 30 mg/kg, IG pretreated with STZ for 21 days followed by compound treatment once daily for 21 days by spectrophotometric analysis; type: functional, organism-based; conditions: dose 3-30 mg/kg, time 21.0 day
[16] = system: Rattus norvegicus; test: Antidiabetic activity in high fat diet/STZ induced diabetic Wistar rat model assessed as reduction in LDL level at 3 to 30 mg/kg, IG pretreated with STZ for 21 days followed by compound treatment once daily for 21 days by spectrophotometric analysis; type: functional, organism-based; conditions: dose 3-30 mg/kg, time 21.0 day
[17] = system: Rattus norvegicus; test: Antidiabetic activity in high fat diet/STZ induced diabetic Wistar rat model assessed as reduction in total cholesterol level at 3 to 30 mg/kg, IG pretreated with STZ for 21 days followed by compound treatment once daily for 21 days by spectrophotometric analysis; type: functional, organism-based; conditions: dose 3-30 mg/kg, time 21.0 day
[18] = system: Rattus norvegicus; test: Antidiabetic activity in high fat diet/STZ induced diabetic Wistar rat model assessed as increase in HDL level at 3 to 30 mg/kg, IG pretreated with STZ for 21 days followed by compound treatment once daily for 21 days by spectrophotometric analysis; type: functional, organism-based; conditions: dose 3-30 mg/kg, time 21.0 day
[19] = system: Rattus norvegicus; test: Antioxidant activity in IG dosed high fat diet/STZ induced diabetic Wistar rat model assessed as reversal of SOD reduction in liver pretreated with STZ for 21 days followed by compound treatment once daily for 21 days by spectrophotometric analysis; type: functional, organism-based; conditions: dose 3-30 mg/kg, time 21.0 day
[20] = system: Rattus norvegicus; test: Antioxidant activity in IG dosed high fat diet/STZ induced diabetic Wistar rat model assessed as reversal of CAT reduction in kidney pretreated with STZ for 21 days followed by compound treatment once daily for 21 days by spectrophotometric analysis; type: functional, organism-based; conditions: dose 3-30 mg/kg, time 21.0 day
[21] = system: Rattus norvegicus; test: Antioxidant activity in IG dosed high fat diet/STZ induced diabetic Wistar rat model assessed as reversal of GPx reduction in liver pretreated with STZ for 21 days followed by compound treatment once daily for 21 days by spectrophotometric analysis; type: functional, organism-based; conditions: dose 3-30 mg/kg, time 21.0 day
[22] = system: Rattus norvegicus; test: Antioxidant activity in high fat diet/STZ induced diabetic Wistar rat model assessed as hepatocyte cytoplasm recovery at 30 mg/kg, IG pretreated with STZ for 21 days followed by compound treatment once daily for 21 days by H and E staining based microscopic analysis; type: functional, organism-based; conditions: time 21.0 day
[23] = system: Rattus norvegicus; test: Antioxidant activity in high fat diet/STZ induced diabetic Wistar rat model assessed as appearance of dilated central veins in hepatocytes at 30 mg/kg, IG pretreated with STZ for 21 days followed by compound treatment once daily for 21 days by H and E staining based microscopic analysis; type: functional, organism-based; conditions: time 21.0 day
[24] = system: Rattus norvegicus; test: Antioxidant activity in high fat diet/STZ induced diabetic Wistar rat model assessed as appearance of round-oval nuclei in hepatocytes at 30 mg/kg, IG pretreated with STZ for 21 days followed by compound treatment once daily for 21 days by H and E staining based microscopic analysis; type: functional, organism-based; conditions: time 21.0 day
[25] = system: Rattus norvegicus; test: Antioxidant activity in high fat diet/STZ induced diabetic Wistar rat model assessed as reduction in mesangial cellularity and matrix at 3 mg/kg, IG pretreated with STZ for 21 days followed by compound treatment once daily for 21 days by H and E staining based microscopic analysis; type: functional, organism-based; conditions: time 21.0 day
[26] = system: Rattus norvegicus; test: Antioxidant activity in high fat diet/STZ induced diabetic Wistar rat model assessed as reduction in lymphocyte level in renal stroma at 3 to 30 mg/kg, IG pretreated with STZ for 21 days followed by compound treatment once daily for 21 days by H and E staining based microscopic analysis; type: functional, organism-based; conditions: dose 3-30 mg/kg, time 21.0 day
[27] = system: Rattus norvegicus; test: Antioxidant activity in high fat diet/STZ induced diabetic Wistar rat model assessed as reduction in plasma cells in renal stroma at 3 to 3 to 30 mg/kg, IG pretreated with STZ for 21 days followed by compound treatment once daily for 21 days by H and E staining based microscopic analysis; type: functional, organism-based; conditions: dose 3-30 mg/kg, time 21.0 day
[28] = system: Rattus norvegicus; test: Antioxidant activity in high fat diet/STZ induced diabetic Wistar rat model assessed as reduction in glomeruli infiltration in stroma at 3 to 30 mg/kg, IG pretreated with STZ for 21 days followed by compound treatment once daily for 21 days by H and E staining based microscopic analysis; type: functional, organism-based; conditions: dose 3-30 mg/kg, time 21.0 day
[29] = system: Rattus norvegicus; test: Antioxidant activity in high fat diet/STZ induced diabetic Wistar rat model assessed as reduction in hazy swelling of columnar cells in tubules at 3 mg/kg, IG pretreated with STZ for 21 days followed by compound treatment once daily for 21 days by H and E staining based microscopic analysis; type: functional, organism-based; conditions: time 21.0 day
[30] = system: Rattus norvegicus; test: Antioxidant activity in high fat diet/STZ induced diabetic Wistar rat model assessed as appearance of sufficient cloudy swelling of columnar cells in tubules at 10 mg/kg, IG pretreated with STZ for 21 days followed by compound treatment once daily for 21 days by H and E staining based microscopic analysis; type: functional, organism-based; conditions: time 21.0 day
[31] = system: Rattus norvegicus; test: Antioxidant activity in high fat diet/STZ induced diabetic Wistar rat model assessed as appearance of typical columnar cells in tubules at 30 mg/kg, IG pretreated with STZ for 21 days followed by compound treatment once daily for 21 days by H and E staining based microscopic analysis; type: functional, organism-based; conditions: time 21.0 day

**Q.** For `Nc1nc(NC2=NC(c3ccccc3)=CC(c3cccc([N+](=O)[O-])c3)O2)nc(N2CCOCC2)n1` (stereo unspecified), which IC50 [1] is on record?
**A.** Its IC50 is over 400 nM.

**Q.** What about the IC50 [2] of the same compound?
**A.** The IC50 was over 400 nM.

**Q.** And the Activity [3]?
**A.** The Activity was “Dose-Dependent Effect”.

**Q.** What about the Activity [4] of the same compound?
**A.** Its Activity is “Active”.

**Q.** What about the Activity [5] of the same compound?
**A.** Its Activity is “Dose-Dependent Effect”.

**Q.** And the Activity [6]?
**A.** Its Activity is “Active”.

**Q.** And the Activity [7]?
**A.** Its Activity is “Non-Toxic”.

**Q.** And the Activity [8]?
**A.** Its Activity is “Non-Toxic”.

**Q.** What about the Activity [9] of the same compound?
**A.** The Activity was “Non-Toxic”.

**Q.** And the Activity [10]?
**A.** Its Activity is “Non-Toxic”.

**Q.** And the Activity [11]?
**A.** Its Activity is “Non-Toxic”.

**Q.** And the Activity [12]?
**A.** The Activity was “Non-Toxic”.

**Q.** And the Activity [13]?
**A.** Its Activity is “Dose-Dependent Effect”.

**Q.** What about the Activity [14] of the same compound?
**A.** Its Activity is “Active”.

**Q.** And the Activity [15]?
**A.** Its Activity is “Active”.

**Q.** What about the Activity [16] of the same compound?
**A.** The Activity was “Active”.

**Q.** What about the Activity [17] of the same compound?
**A.** Its Activity is “Active”.

**Q.** And the Activity [18]?
**A.** The Activity was “Active”.

**Q.** And the Activity [19]?
**A.** Its Activity is “Dose-Dependent Effect”.

**Q.** What about the Activity [20] of the same compound?
**A.** Its Activity is “Dose-Dependent Effect”.

**Q.** And the Activity [21]?
**A.** Its Activity is “Dose-Dependent Effect”.

**Q.** What about the Activity [22] of the same compound?
**A.** Its Activity is “Active”.

**Q.** What about the Activity [23] of the same compound?
**A.** The Activity was “Active”.

**Q.** And the Activity [24]?
**A.** The Activity was “Active”.

**Q.** And the Activity [25]?
**A.** Its Activity is “inactive”.

**Q.** What about the Activity [26] of the same compound?
**A.** The Activity was “Active”.

**Q.** What about the Activity [27] of the same compound?
**A.** Its Activity is “Active”.

**Q.** What about the Activity [28] of the same compound?
**A.** The Activity was “Active”.

**Q.** What about the Activity [29] of the same compound?
**A.** The Activity was “inactive”.

**Q.** And the Activity [30]?
**A.** Its Activity is “Active”.

**Q.** What about the Activity [31] of the same compound?
**A.** Its Activity is “Active”.
